Measurements reported in patent US11485762B2, “Compositions and methods for inhibition of L-plastin activity in osteoclasts to reduce bone loss” (University of Maryland, Baltimore, priority 2017, dated 2022).
Substitutions are numbered along the chain they refer to.

B1: FL-LPL: HA-TAT fused full-length L-plastin protein (70-75 kDa), purified from bacterial expression vector pTAT-HA (protein, UniProt P13796 1-627, looked up)
chain: MARGSVSDEEMMELREAFAKVDTDGNGYISFNELNDLFKAACLPLPGYRVREITENLMATGDLDQDGRISFDEFIKIFHGLKSTDVAKTFRKAINKKEGICAIGGTSEQSSVGTQHSYSEEEKYAFVNWINKALENDPDCRHVIPMNPNTNDLFNAVGDGIVLCKMINLSVPDTIDERTINKKKLTPFTIQENLNLALNSASAIGCHVVNIGAEDLKEGKPYLVLGLLWQVIKIGLFADIELSRNEALIALLREGESLEDLMKLSPEELLLRWANYHLENAGCNKIGNFSTDIKDSKAYYHLLEQVAPKGDEEGVPAVVIDMSGLREKDDIQRAECMLQQAERLGCRQFVTATDVVRGNPKLNLAFIANLFNRYPALHKPENQDIDWGALEGETREERTFRNWMNSLGVNPRVNHLYSDLSDALVIFQLYEKIKVPVDWNRVNKPPYPKLGGNMKKLENCNYAVELGKNQAKFSLVGIGGQDLNEGNRTLTLALIWQLMRRYTLNILEEIGGGQKVNDDIIVNWVNETLREAKKSSSISSFKDPKISTSLPVLDLIDAIQPGSINYDLLKTENLNDDEKLNNAKYAISMARKIGARVYALPEDLVEVNPKMVMTVFACLMGKGMKRV
modifications: full-length HA-TAT tag
notes: HA-TAT fused full-length L-plastin protein (70-75 kDa), purified from bacterial expression vector pTAT-HA
B2: mutated FL-LPL: TAT-fused full-length L-plastin with Ser-5 and Ser-7 mutated to Ala-5 and Ala-7 (protein, UniProt P13796 1-627, looked up, variant S5A S7A)
chain: B1 chain with S5A, S7A
modifications: full-length HA-TAT tag

Columns and labels:
osteoclasts = test: Sealing ring formation in osteoclasts plated on dentine; assay type: cell-based, mouse; conditions: for formation of mature sealing rings: sNT-LPL peptides, time course to 10 hours; for number of sealing rings: dentine 10-12 hours, TNF-α
Procedure: (§1) The vector pTAT-HA has an N-terminal 6-histidine leader (Nagahara et al., 1998, Nature Medicine, 4:1449-1452). […] For transduction with TAT-fused peptides (100-150 nM), osteoclasts were first kept in serum-free α-MEM for two hours. Afterward, TAT proteins of interest, bone particles, and TNF-α were added to cells in serum-free α-MEM Lysates were made from these cells for immunoprecipitation and immunoblotting analyses. Osteoclasts plated on dentine slices in the presence of TAT-proteins of interest and TNF-α for 3-6 hours or 12-14 hours were used for immunostaining or actin staining analyses. Osteoclast cultures treated only with TNF-α were used as controls.
Osteoclast precursors (10^5 cells/coverslips) were cultured on glass cover slips or dentine slices. Fluorescent labeling was done in osteoclasts transduced or untransduced with TAT-proteins. HA or TAT antibody was used to identify the transduced peptides of interest; rhodamine phalloidin was used to determine actin organization (Chellaiah et al., 2000, J. Cell Biol., 148: 665-678; Chellaiah et al., 2000, J. Biol. Chem., 275: 11993-12002). Immunostained and actin stained osteoclasts were photographed with a Bio-Rad confocal laser-scanning microscope. Images were stored in TIF image format and processed by Adobe Photoshop (Adobe Systems Inc., Mountain View. Calif.).
(§2) After cells were kept in the serum-free α-MEM medium for two hours, LPL peptides of interest were added to a final concentration of 100-150 nM to cells in serum-free media (Chellaiah et al, 2000, J. Biol. Chem., 275: 11993-12002). Osteoclasts transduced with peptides of interest and added with bone particles in the presence of TNF-α for 3-4 hours or 12-14 hours were used for lysate preparations. Cells plated on coverslips and treated with peptides were used for actin staining to detect podosomes. After transduction for 30 min., osteoclasts were re-plated on dentine slices with respective LPL peptide and TNF-α for 3-6 hours or 12-14 hours. These cells were used for Actin staining with rhodamine-phalloidin or immunostaining analyses (Chellaiah et al., 2000, J. Biol. Chem., 275: 11993-12002; Chellaiah et al., 2000, J. Cell. Biol., 148: 665-678; Chellaiah et al., 2003, J Biol Chem 278: 29086-29097).
Osteoclasts were fixed with 3% paraformaldehyde for 20 minutes and permeabilized with 0.1% Triton X-100 in PBS for 5 minutes. Subsequently, osteoclasts were stained with a primary (HA or integrin αv) and secondary antibody as described (Chellaiah et al., 2003, J Biol Chem 278: 29086-29097). Actin staining was done with rhodamine-phalloidin as described (Chellaiah et al., 2000, J. Biol. Chem., 275: 11993-12002; Chellaiah et al., 2000, J. Cell Biol., 148: 665-678). […]

endogenous LPL = test: Phosphorylation of endogenous (cellular) LPL in osteoclasts (LPL immunoprecipitation, p-Serine immunoblot); assay type: cell-based, mouse; conditions: for inhibitory effect on the phosphorylation of cellular LPL: sNT-LPL peptides, 3-4 hours; for inhibitory effect on the phosphorylation of cellular LPL / phosphorylation of endogenous LPL: bone particles and TNF-α; for phosphorylation of endogenous LPL: TAT-fused LPL peptides 150 nM, 3 hours
Procedure: Bone particles (60-80 μm in size) were prepared as described previously (Ma et at, 2010, J. Biol. Chem., 285: 29911-29924). After flushing the marrow cells for osteoclast differentiation as described above, long bones of mice (free of cells inside and muscles outside) were washed extensively with PBS and kept in ethanol until use. Long bones were air-dried in the hood and homogenized by a mini blender. Bone particles were sieved and used for experiments. Multinucleated osteoclasts were seen from day four onward. At this time cultures were added with bone particles (100 μg/ml media) for 3-4 hours or 12-14 hours in the presence of TNF-α (20 ng/ml). Some cultures were treated with 3-5 μg/ml TNFR1 antibody. Osteoclasts were preincubated with the TNFR1 antibody for 60-90 minutes before the addition of TNF-α to enhance the blocking effect. Osteoclasts incubated with bone particles for 3-4 or 12-14 hours in the presence of TNF-α were used for lysate preparations.
as §1
Following various treatments, osteoclasts were washed three-times with cold PBS and lysed in a radioimmune precipitation buffer (RIPA; 10 mM Tris-HCl, pH 7.2, 150 mM NaCl, 1% deoxycholate, 1% Triton X-100, 0.1% SDS, 1% aprotinin, 2 mM PMSF, […], and 1% aprotinin). Cells were rocked on ice for 15 minutes and scraped off with a cell scraper. Cell lysates were centrifuged at 15,000 rpm for 5 minutes at 4° C., and the supernatant was saved. Protein contents were measured using Bio-Rad protein assay reagent. Equal amounts of lysate proteins (100-150 μg) were used for immunoprecipitations. Immunoprecipitations and Western blotting were done as described previously (Chellaiah et al., 1998, J. Biol. Chem., 273: 11908-11916; Chellaiah et al., 1996, Mol. Biol. Cell, 7: 743-753).
as §2
Following various treatments, osteoclasts were washed three times with cold PBS and lysed in a Triton-containing lysis buffer as described (Chellaiah et al., 1996, Mol. Biol. Cell, 7: 743-753). Cells were rocked on ice for 15 minutes, and scraped off with a cell scraper. Cell lysates were centrifuged at 15,000 rpm for 5 minutes, at 4° C., and the supernatant was saved. Protein contents were measured using Bio-Rad protein assay reagent. Osteoclast cultures were also subjected to a trypan blue dye (Sigma T8154) exclusion test to determine the viability of osteoclasts after various treatments. […]

Molecule | formation of mature sealing rings (osteoclasts) | inhibitory effect on the phosphorylation of cellular LPL (endogenous LPL) | phosphorylation of endogenous LPL (endogenous LPL) | also measured
MARGSVSDEE [Peptide P1, TAT-fused small molecular weight (10aa) amino-terminal LPL peptide, unsubstituted (S5S7)] | abrogated | inhibition is significant | – | cellular levels of LPL (endogenous LPL; FIG. 8B and FIG. 13B (mouse and RAW-derived osteoclasts)): did not change
MARGAVADEE [Peptide P2, TAT-fused sNT-LPL peptide, Ser-5 and Ser-7 substituted to Alanine (A5A7)] | – | No significant inhibitory effect | – | –
SRSGMVEEAD [Peptide P5, TAT-fused scrambled sNT-LPL peptide, control, reference compound] | time-dependent organization | No significant inhibitory effect | – | –
B1 | – | – | basal level phosphorylation | number of sealing rings (osteoclasts): Multiple sealing rings; number of sealing rings (osteoclasts; listed as PL-LPL): increased
B2 | – | – | basal level phosphorylation | –
